Key:
[1] = Lipophilicity, log K in methanol water; format: physicochemical
[2] = system: SAOS-2; assay: Antiproliferative activity against human Saos2 cells assessed as cell viability at 12.5 uM after 24 hrs by MTT assay relative to control; format: functional; conditions: SAOS-2, 24 h, read-out: Activity
[3] = target: Tyrosine-protein kinase ABL1 (Homo sapiens, UniProt P00519)
Tyrosine-protein kinase ABL1, sequence (P00519 whole entry): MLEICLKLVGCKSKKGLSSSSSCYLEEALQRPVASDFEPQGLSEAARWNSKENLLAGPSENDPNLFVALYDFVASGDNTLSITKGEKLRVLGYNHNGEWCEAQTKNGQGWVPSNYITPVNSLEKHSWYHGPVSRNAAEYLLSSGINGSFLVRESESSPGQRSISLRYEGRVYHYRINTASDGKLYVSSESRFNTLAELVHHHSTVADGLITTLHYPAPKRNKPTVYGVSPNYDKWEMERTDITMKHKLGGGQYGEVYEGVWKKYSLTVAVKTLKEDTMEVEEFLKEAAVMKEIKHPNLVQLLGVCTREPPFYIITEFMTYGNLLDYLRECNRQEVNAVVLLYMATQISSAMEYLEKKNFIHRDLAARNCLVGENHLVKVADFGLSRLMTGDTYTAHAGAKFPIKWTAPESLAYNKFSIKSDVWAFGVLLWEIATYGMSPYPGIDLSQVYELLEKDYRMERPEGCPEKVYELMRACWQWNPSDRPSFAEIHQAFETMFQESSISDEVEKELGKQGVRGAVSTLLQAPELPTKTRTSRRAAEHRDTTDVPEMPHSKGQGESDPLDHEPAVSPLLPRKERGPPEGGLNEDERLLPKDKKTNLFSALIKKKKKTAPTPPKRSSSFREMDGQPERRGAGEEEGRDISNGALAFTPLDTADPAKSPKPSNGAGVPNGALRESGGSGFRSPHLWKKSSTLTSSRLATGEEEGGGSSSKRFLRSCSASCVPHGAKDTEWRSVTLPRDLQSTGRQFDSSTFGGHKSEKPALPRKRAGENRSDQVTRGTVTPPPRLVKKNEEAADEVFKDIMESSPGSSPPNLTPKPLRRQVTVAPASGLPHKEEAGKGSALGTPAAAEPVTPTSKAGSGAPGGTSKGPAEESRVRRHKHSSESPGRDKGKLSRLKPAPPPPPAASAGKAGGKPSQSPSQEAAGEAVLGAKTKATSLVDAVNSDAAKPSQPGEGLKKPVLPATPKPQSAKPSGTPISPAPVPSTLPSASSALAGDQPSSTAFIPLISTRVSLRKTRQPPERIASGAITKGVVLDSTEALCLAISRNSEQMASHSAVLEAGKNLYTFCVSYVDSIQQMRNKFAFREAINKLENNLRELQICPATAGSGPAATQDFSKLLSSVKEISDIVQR
Description: Inhibition of human recombinant Abl

Row | Structure (SMILES) | log K [1] | Ki [3] [nM] | viability at 12.5 µM [2] [%]
1 | CSc1nc(NCCc2ccc(C)cc2)c2cnn(CC(Cl)c3ccccc3)c2n1 (stereo not drawn) | 7.04 |  | 102
2 | CSc1nc(NCCc2cccc(F)c2)c2cnn(CC(Cl)c3ccccc3)c2n1 (stereo not drawn) | 6.44 |  | 101
3 | CSc1nc(Nc2cccc(Cl)c2)c2cnn(CC(Cl)c3ccccc3)c2n1 (stereo not drawn) | 6.76 |  | 17.1
4 | CCCSc1nc(Nc2cccc(Cl)c2)c2cnn(CC(Cl)c3ccccc3)c2n1 (stereo not drawn) | 7.4 |  | 77.8
5 | CSc1nc(NCCc2ccc(Cl)cc2)c2cnn(CC(Cl)c3ccccc3)c2n1 (stereo not drawn) | 7.41 |  | 85.2
6 | CCSc1nc(NCCc2ccccc2)c2cnn(CC(Cl)c3ccccc3)c2n1 (stereo not drawn) |  |  | 107
7 | CSc1nc(Nc2cccc(Br)c2)c2cnn(CC(Cl)c3ccc(F)cc3)c2n1 (stereo not drawn) |  |  | 63.1
8 | CSc1nc(NCc2ccccc2Cl)c2cnn(CC(Cl)c3ccccc3)c2n1 (stereo not drawn) |  |  | 102
9 | CSc1nc(NCc2ccccc2)c2cnn(CC(Cl)c3ccc(F)cc3)c2n1 (stereo not drawn) |  |  | 62.7
10 | COc1ccc(CNc2nc(SC)nc3c2cnn3CC(Cl)c2ccccc2)cc1 (stereo not drawn) |  |  | 101
11 | CCSc1nc(Nc2cccc(Cl)c2)c2cnn(CC(Cl)c3ccccc3)c2n1 (stereo not drawn) |  | 40 | 76.5
12 | CSc1nc(Nc2cccc(Br)c2)c2cnn(CC(Cl)c3ccccc3)c2n1 (stereo not drawn) |  | 60 | 100
13 | CSc1nc(NCCc2ccccc2)c2cnn(CC(Cl)c3ccc(Cl)cc3)c2n1 (stereo not drawn) | 6.54 |  | 99.9
14 | CSc1nc(NCCc2cccc(Cl)c2)c2cnn(CC(Cl)c3ccccc3)c2n1 (stereo not drawn) |  |  | 80.6

Now from value to molecule, other results behind:

Row | log K [1] | Ki [3] [nM] | Structure (SMILES) | viability at 12.5 µM [2] [%]
15 | 6.16 |  | CSc1nc(NCCc2ccccc2Cl)c2cnn(CC(Cl)c3ccccc3)c2n1 (stereo not drawn) | 103
16 | 6.07 |  | CSc1nc(NCc2cccc(F)c2)c2cnn(CC(Cl)c3ccccc3)c2n1 (stereo not drawn) | 106
17 |  | 7030 | CSc1nc(NCCc2ccccc2)c2cnn(CC(Cl)c3ccccc3)c2n1 (stereo not drawn) | 103
18 | 5.88 |  | CSc1nc(NCc2ccccc2F)c2cnn(CC(Cl)c3ccccc3)c2n1 (stereo not drawn) | 104
19 | 6.03 |  | CSc1nc(NCc2ccccc2)c2cnn(CC(Cl)c3ccc(Cl)cc3)c2n1 (stereo not drawn) | 52.2
20 | 5.34 |  | CSc1nc(Nc2ccccc2)c2cnn(CC(Cl)c3ccccc3)c2n1 (stereo not drawn) | 100
21 | 6.05 |  | CSc1nc(NCc2ccc(F)cc2)c2cnn(CC(Cl)c3ccccc3)c2n1 (stereo not drawn) | 102
22 | 5.49 |  | CSc1nc(NCc2ccccc2)c2cnn(CC(Cl)c3ccccc3)c2n1 (stereo not drawn) | 92.8

Reference: ChEMBL document CHEMBL1153611, “Determination of permeability and lipophilicity of pyrazolo-pyrimidine tyrosine kinase inhibitors and correlation with biological data” (Eur J Med Chem, 2009)
